For the test, the target named is T1, TfCut2 (Thermobifida fusca, UniProt Q6A0I4).
T1 construct: gene cut2; gene without signal peptide from T. fusca KW3 genomic DNA, pET-20b(+) with pelB leader and His6 tag, E. coli BL21(DE3), purified
Description: PET film hydrolysis, released products by RP-HPLC; Lineweaver-Burk slope replot. Particulars: amorphous PET film substrate, 0.2 M sodium phosphate pH 8.0, 60 °C, 1 h; MOPS 0.05-0.075 M; competitive. In kind it is biochemical. An excerpt:
PET film hydrolysis, released products by RP-HPLC; Lineweaver-Burk slope replot on TfCut2

T1 sequence (Q6A0I4 41-301): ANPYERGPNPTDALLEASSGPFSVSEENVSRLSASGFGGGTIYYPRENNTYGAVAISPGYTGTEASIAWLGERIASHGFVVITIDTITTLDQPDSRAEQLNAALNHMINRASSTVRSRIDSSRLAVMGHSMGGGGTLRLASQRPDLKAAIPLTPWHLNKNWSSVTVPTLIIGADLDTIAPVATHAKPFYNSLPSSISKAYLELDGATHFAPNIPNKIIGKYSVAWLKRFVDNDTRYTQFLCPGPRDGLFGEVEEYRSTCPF

As for `O=S(=O)(O)CCCN1CCOCC1` [MOPS, 3‐(N‐morpholino)propanesulfonic acid], the Ki – broadly, a measure of affinity in units of concentration, obtained from inhibition or displacement – worked out at 80 mM.

The record behind these values is publication PMC5011490, “Effect of Tris, MOPS, and phosphate buffers on the hydrolysis of polyethylene terephthalate films by polyester hydrolases” (FEBS Open Bio, 2016).
